Laboratory results: patent US20260199350A1, “FLAVONES, QUINOLINONES, QUINAZOLINONES, AND AURONES, AND USES IN CK2-MEDIATED DISEASES” (Salk Institute for Biological Studies, priority 2022, published 2026)
≈ marks a conversion by molar mass, not a printed value. Where two headings read alike, the source gives them in different places.

Tests used:
[1] = target: T1, CK2A1 (Homo sapiens, UniProt P68400); experiment: Radiometric kinase assay (Eurofins), CK2A1; assay type: biochemical
T1 construct: purchased Eurofins
T1 sequence (P68400 whole entry): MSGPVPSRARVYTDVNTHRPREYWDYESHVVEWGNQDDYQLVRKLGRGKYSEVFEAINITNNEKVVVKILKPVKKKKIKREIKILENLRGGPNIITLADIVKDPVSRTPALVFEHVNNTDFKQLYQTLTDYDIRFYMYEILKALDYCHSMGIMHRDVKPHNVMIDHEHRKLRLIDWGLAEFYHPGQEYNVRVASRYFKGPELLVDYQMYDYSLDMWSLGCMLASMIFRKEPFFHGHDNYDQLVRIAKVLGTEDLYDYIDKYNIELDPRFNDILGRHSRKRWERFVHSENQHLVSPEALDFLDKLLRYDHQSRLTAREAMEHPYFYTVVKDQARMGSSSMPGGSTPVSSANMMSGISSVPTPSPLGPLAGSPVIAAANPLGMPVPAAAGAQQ
Source text: FIGS. 4A-4F characterize flavones for in vitro and in-cell CK2 inhibition. […] Representative of two independent experiments. […] Nonlinear fit was used to calculate IC50. […] Nonlinear fit was used to calculate IC50. […] Nonlinear fit was used to calculate IC50. […] Normalized to DMSO, data are representative of three independent experiments.
(§1) • ^1Radiometric kinase assay from Eurofins. Performed in astrocytes with a Promega Lumit IL-6 kit.

[2] = target: T2, CK2A2 (Homo sapiens, UniProt P19784); experiment: Radiometric kinase assay (Eurofins), CK2A2; assay type: biochemical
T2 construct: purchased Eurofins
T2 sequence (P19784 whole entry): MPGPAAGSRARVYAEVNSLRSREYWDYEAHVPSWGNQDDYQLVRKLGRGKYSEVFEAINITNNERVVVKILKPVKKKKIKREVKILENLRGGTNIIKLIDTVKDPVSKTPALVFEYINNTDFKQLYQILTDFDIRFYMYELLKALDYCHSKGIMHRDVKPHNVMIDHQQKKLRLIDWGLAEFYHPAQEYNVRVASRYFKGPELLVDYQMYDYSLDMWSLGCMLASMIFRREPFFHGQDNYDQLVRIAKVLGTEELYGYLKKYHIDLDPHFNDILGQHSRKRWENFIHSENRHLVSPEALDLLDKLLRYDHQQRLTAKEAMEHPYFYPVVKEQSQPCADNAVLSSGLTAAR
Source text: as §1

[3] = system: IL-6 secretion; experiment: IL-6 secretion assay in astrocytes (Promega Lumit IL-6 kit); assay type: cell-based, human; conditions: Homo sapiens, Astrocyte, read-out: IL6-Inhib.
Method: IL-6 secretion assay. HCAs were plated at 20,000 cells per well in white clear bottom 96-well plates. Two to three days later, media was removed and replaced with media containing 10 ng/mL IL1B and compound dilution series. Five hours later, plates were processed using the Lumit IL-6 Assay Kit (Promega W6030) according to the manufacturer's instructions.
• ^1Radiometric kinase assay from Eurofins. Performed in astrocytes with a Promega Lumit IL-6 kit. A series of halogenated flavones was generated and assayed (Table 3).

[4] = Aqueous solubility; assay type: physicochemical
[5] = Table 2, read-out: CK2A1 RAD IC50
[6] = Table 2, read-out: CK2A2 RAD IC50
[7] = Table 10, aurones, read-out: CK2A1 IC50
[8] = Table 10, aurones, read-out: CK2A2 IC50
[9] = Table 3, halogenated flavones, read-out: CK2A1 RAD IC50
[10] = Table 3, halogenated flavones, read-out: CK2A2 RAD IC50
[11] = aqueous (not further specified), Table 3, read-out: Aqueous Solubility

IC50 [1, 5] [nM]	IC50 [2, 6] [nM]	IC50 ([3]; Table 2, astrocytes) [nM]	IC50 [1, 7] [nM]	IC50 [2, 8] [nM]	IC50 ([3]; Table 10) [nM]	solubility ([4]; Table 10, read-out: Solubility) [µM]	Compound	further results
19	3	5000					O=c1cc(-c2ccc(O)c(Br)c2)oc2c(Br)cc(Br)cc12 [JKT.464A]	
134	45	4900					O=c1cc(-c2cc(Cl)c(O)c(Cl)c2)oc2c(Br)cc(Br)cc12 [JKT.465A]	
> 5000	2060	> 10000					Cc1cc(-c2cc(=O)c3cc(Br)cc(Br)c3o2)ccc1O [JKT.475A]	
9	4	3500					COc1nc(-c2cc(=O)c3cc(Br)cc(Br)c3o2)ccc1O [JKT.606A]	
			> 5000	> 5000	7900	5.6 (≈ 2.22 µg/mL)	O=C1/C(=C/c2ccc(O)cc2)Oc2c(Br)cc(Br)cc21 [JKT.629A]	
			211	274	9800	3 (≈ 1.28 µg/mL)	COc1cc(/C=C2\Oc3c(Br)cc(Br)cc3C2=O)ccc1O [JKT.630A]	
			> 5000	> 5000	> 10000	22.6 (≈ 8.95 µg/mL)	O=C1/C(=C/c2cccc(O)c2)Oc2c(Br)cc(Br)cc21 [JKT.631A]	
			> 5000	> 5000	10000	> 200	N#Cc1ccc(/C=C2\Oc3c(Br)cc(Br)cc3C2=O)cc1 [JKT.632A]	
			> 5000	> 5000	> 10000	102 (≈ 45.8 µg/mL)	O=C1/C(=C/c2ccc(-c3nnn[nH]3)cc2)Oc2c(Br)cc(Br)cc21 [JKT.633A]	
			22	46	2000	25.5 (≈ 12.1 µg/mL)	O=C1/C(=C/c2ccc(O)c(Br)c2)Oc2c(Br)cc(Br)cc21 [JKT.634A]	Inhibition of CK2A1 ([1]; in words): potent inhibition of both; Inhibition of CK2A2 ([2]; in words): potent inhibition of both
			531	213	1800	22 (≈ 10.2 µg/mL)	O=C1/C(=C/c2ccc(O)c(C(F)(F)F)c2)Oc2c(Br)cc(Br)cc21 [JKT.635A]	
			537	62	> 10000	> 200	O=C(O)c1ccc(/C=C2\Oc3c(Br)cc(Br)cc3C2=O)cc1 [JKT.636A]	Window of selectivity for CK2A2 over CK2A1 [2]: nine-fold
			> 5000	> 5000	> 10000	52.4 (≈ 19.4 µg/mL)	O=C1/C(=C/c2ccco2)Oc2c(Br)cc(Br)cc21 [JKT.637A]	
			> 5000	> 5000	> 10000	30.2 (≈ 11.2 µg/mL)	O=C1/C(=C/c2ccoc2)Oc2c(Br)cc(Br)cc21 [JKT.638A]	
5	8	2000					COc1nc(-c2cc(=O)c3cccc(Br)c3o2)ccc1O [JKT.666A]	
7	5	2900					COc1nc(-c2cc(=O)c3cc(Cl)cc(Br)c3o2)ccc1O [JKT.669A]	
17	8	3600					COc1nc(-c2cc(=O)c3cc(Cl)cc(Cl)c3o2)ccc1O [JKT.678A]	
247	49	8600					COc1cc(-c2cc(=O)c3cc(Br)c(OC)c(Br)c3o2)ccc1O [JKT.706A]	
							O=c1cc(-c2ccc(O)c(Br)c2)oc2c(Br)cc(Cl)cc12 [JKT.714A]	IC50 [1, 9]: 12 nM; IC50 [2, 10]: 8 nM; IC50 ([3]; Table 3): 4600 nM; solubility [4, 11]: 35.2 µM (≈ 15.2 µg/mL)
							O=c1cc(-c2ccc(O)c(Br)c2)oc2c(Cl)cc(Cl)cc12 [JKT.715A]	IC50 [1, 9]: 18 nM; IC50 [2, 10]: 16 nM; IC50 ([3]; Table 3): 4100 nM; solubility [4, 11]: 120 µM (≈ 46.2 µg/mL)
							O=c1cc(-c2ccc(O)c(Cl)c2)oc2c(Br)cc(Br)cc12 [JKT.721A]	IC50 [1, 9]: 10 nM; IC50 [2, 10]: 5 nM; IC50 ([3]; Table 3): 2600 nM; solubility [4, 11]: 19.6 µM (≈ 8.44 µg/mL)
							O=c1cc(-c2ccc(O)c(Cl)c2)oc2c(Br)cc(Cl)cc12 [JKT.722A]	IC50 [1, 9]: 10 nM; IC50 [2, 10]: 7 nM; IC50 ([3]; Table 3): 2200 nM; solubility [4, 11]: 27.5 µM (≈ 10.6 µg/mL)
							O=c1cc(-c2ccc(O)c(I)c2)oc2c(Br)cc(Br)cc12 [JKT.724A]	IC50 [1, 9]: 19 nM; IC50 [2, 10]: 7 nM; IC50 ([3]; Table 3): 3800 nM; solubility [4, 11]: 11.2 µM (≈ 5.85 µg/mL)
